Measurements as given in patent US5739104A, “Anti-fungal agents” (Schering Corporation, priority 1995, dated 1998).
One block for each compound: values may come before it. Starred links: 1 amine or outer side, 2 acyl side, 3 side chain; linkers in the order of their positions; H or OH if unused. Non-standard residues stand in square brackets, D forms with d. Residues, ends and D or L forms follow the SMILES beside them. X1 = O=C([C@H](O[*:1])C1CCCCC1)[*:2]; X2 = O=C([C@H](O[*:1])c1ccccc1)[*:2]; X3 = O=C([C@H](O[*:1])C1CCCC1)[*:2]; X4 = O=C([C@@H](O[*:1])C1CC1)[*:2]; NMeF = CN[C@@H](Cc1ccccc1)C(=O)O; NMeT = CN[C@H](C(=O)O)[C@@H](C)O; aIle = CC[C@@H](C)[C@H](N)C(=O)O; NMeV = CN[C@H](C(=O)O)C(C)C; dHiv = CC(C)[C@@H](O)C(=O)O; Pip = O=C(O)[C@@H]1CCCCN1; Aze = O=C(O)[C@@H]1CCN1

Columns and labels:
[1] = test system: Candida albicans, Candida tropicalis, Candida stellatoidea, Candida parapsilosis, Candida krusei; experiment: In vitro anti-fungal microtiter minimum inhibitory concentration (MIC) test, geometric mean over Candida strains; assay type: cell-based
Description: The geometric mean is taken from the following strains
Candida stellatoidea C184
The minimum inhibitory concentrations (GMMICs-R(μg/ml) for Ca (SDB) Ca (EMEM) (Derm) and (Asp) for the compounds of formula I of the invention are as shown in Table 2 above.
The minimum inhibitory concentrations were determined in accordance with the procedure set forth just below.
In vitro anti-fungal activity was determined in microtiter minimum inhibitory concentration (MIC) tests using Yeast Nitrogen Broth (YNB without amino acids, Difco., Detroit, Mich.) at pH 5.4. Yeasts were grown overnight in Sabouraud Dextrose Broth at 28° C. with shaking, and concentrations adjusted in sterile saline using a spectrophoptometer at 540 mμ. Compounds were dissolved in various vehicles and diluted in media to twice the final concentrations. The Cetus Pro/Pette system was used to serially dilute 50 μl in round bottom 96 well plates (Falcon, Lincoln Park, N.J.). The turbidometrically adjusted yeast suspensions were diluted 1:3,000 in YNB. These dilutions when added to the wells, produced a final inoculum of 3×10^3 /ml. Plates were incubated at 37° C. for 48 hours. MICs were defined as the lowest concentrations of compound that prevented visible growth. MICs were taken against the following organisms and expressed in the table above as the geometric mean.

[2] = test system: C. Albicans, C-43; experiment: In vivo anti-fungal activity, C. albicans infection study in mice; details: once a day for 4 days starting 4 hours post infection
Description: In vivo anti-fungal activity for compounds of formula I of the invention was determined by using the test protocol set forth in Cacciapuoti et al, ANTIMICROBIAL AGENTS AND CHEMOTHERAPY, Vol.36, No. 1, January 1992, p. 64-67, which is hereby incorporated by reference. The specific test protocol used to obtain the data given below, appears in the just above mentioned article at pages 64 and 65 under the heading "C. albicans infection studies". Data obtained from this test protocol are as follows:
The numbering for the compounds tested is the same as the numbering used for the compounds in the rest of the application. The mice used in the above experiment were Charles River, white, male, mice weighing between 18 and 20 grams. The organism used to infect the mice was C. Albicans, C-43, 1XE6 CFU/mice, 0.1 M1 IV. The treatment was once a day for 4 days starting 4 hours post infection for those compounds which have a * next to them. For those compounds which have no * next to them, the treatment was once a day for 4 days starting 24 hours post infection. The dose was 0.1 ml/mouse in either case. The vehicle used with the compounds was Tween 80:Ethanol:PBS (1:9:40 or 2%:18%:80%)

[3] = EMEM, geometric mean over 14 Candida strains, 37° C., 48 hours
[4] = SDB, geometric mean over 14 Candida strains, 37° C., 48 hours

- Geo. Mean MICs (μg/ml) Ca. (EMEM) ([1]; 48 h): 0.780 µg/mL
- Geo. Mean MICs (μg/ml) Ca. (SDB) ([1]; 48 h): 0.133 µg/mL
SMILES: CC[C@@H](C)[C@@H]1NC(=O)[C@@H]2CCCN2C(=O)[C@H](Cc2ccccc2)N(C)C(=O)[C@H](Cc2ccccc2)NC(=O)[C@H](C(C)C)N(C)C(=O)[C@H](C2CC2)OC(=O)[C@H]([C@@H](C)O)N(C)C(=O)[C@H](CC(C)C)NC(=O)[C@H](C(C)C)N(C)C1=O [Compound 8] (cyclo([X4][NMeV]F[NMeF]P[aIle][NMeV]L[NMeT]))

- Geo. Mean MICs (μg/ml) Ca. (EMEM) ([1]; 48 h): 0.710 µg/mL
- Geo. Mean MICs (μg/ml) Ca. (SDB) ([1]; 48 h): 0.170 µg/mL
SMILES: CC[C@@H](C)[C@@H]1NC(=O)[C@@H]2CCCN2C(=O)[C@H](Cc2ccccc2)N(C)C(=O)[C@H](Cc2ccccc2)NC(=O)[C@H](C(C)C)N(C)C(=O)[C@@H](c2ccccc2)OC(=O)[C@H]([C@@H](C)O)N(C)C(=O)[C@H](CC(C)C)NC(=O)[C@H](C(C)C)N(C)C1=O [Compound 7] (cyclo(F[NMeF]P[aIle][NMeV]L[NMeT][X2][NMeV]))

- Geo. Mean MICs (μg/ml) Ca. (EMEM) ([1]; 48 h): 0.475 µg/mL
- Geo. Mean MICs (μg/ml) Ca. (SDB) ([1]; 48 h): 0.290 µg/mL
SMILES: CC[C@@H](C)[C@@H]1NC(=O)[C@@H]2CCCCN2C(=O)[C@H](Cc2ccccc2)N(C)C(=O)[C@H](Cc2ccccc2)NC(=O)[C@H](C(C)C)N(C)C(=O)[C@@H](C2CCCCC2)OC(=O)[C@H]([C@@H](C)O)N(C)C(=O)[C@H](CC(C)C)NC(=O)[C@H](C(C)C)N(C)C1=O [Compound 9] (cyclo(F[NMeF][Pip][aIle][NMeV]L[NMeT][X1][NMeV]))

More lines, now with the values behind:

SMILES: CC[C@@H](C)[C@@H]1NC(=O)[C@@H]2CCCN2C(=O)[C@H](Cc2ccccc2)N(C)C(=O)[C@H](Cc2ccccc2)NC(=O)[C@H](C(C)C)N(C)C(=O)[C@@H](C2CCCCC2)OC(=O)[C@H]([C@@H](C)O)N(C)C(=O)[C@H](CC(C)C)NC(=O)[C@H](C(C)C)N(C)C1=O [Compound 1, Cyclo-depsi-N-methyl-threonyl-(2-hydroxyl-2-cyclohexylacetyl)-N-methylvalyl-phenylanalyl-N-methylphenylanalyl-prolyl-allo-isoleucyl-N-methylvalyl-leucine] (cyclo(F[NMeF]P[aIle][NMeV]L[NMeT][X1][NMeV]))
- Geo. Mean MICs (μg/ml) Ca. (EMEM) [1, 3]: 0.288 µg/mL
- Geo. Mean MICs (μg/ml) Ca. (SDB) [1, 4]: 0.018 µg/mL
- % Survival ([2]; 5 MPK IV): 60%
- CFUs (GM) ([2]; 5 MPK IV): 6.90
- % Survival ([2]; 5 MPK PO): 70%
- CFUs (GM) ([2]; 5 MPK PO): 6.68
- % Survival ([2]; 10 MPK IV): 70%
- CFUs (GM) ([2]; 10 MPK IV): 7.11
- % Survival ([2]; 10 MPK PO): 100%
- CFUs (GM) ([2]; 10 MPK PO): 6.01
- % Survival ([2]; 20 MPK PO): 100%
- CFUs (GM) ([2]; 20 MPK PO): 6.38
- % Survival ([2]; 40 MPK PO): 100%
- CFUs (GM) ([2]; 40 MPK PO): 6.52

SMILES: CC[C@@H](C)[C@@H]1NC(=O)[C@@H]2CCCN2C(=O)[C@H](Cc2ccccc2)N(C)C(=O)[C@H](Cc2ccccc2)NC(=O)[C@H](C(C)C)N(C)C(=O)[C@@H](C2CCCC2)OC(=O)[C@H]([C@@H](C)O)N(C)C(=O)[C@H](CC(C)C)NC(=O)[C@H](C(C)C)N(C)C1=O [Compound 6] (cyclo(F[NMeF]P[aIle][NMeV]L[NMeT][X3][NMeV]))
- Geo. Mean MICs (μg/ml) Ca. (EMEM) ([1]; 48 h): 0.500 µg/mL
- Geo. Mean MICs (μg/ml) Ca. (SDB) ([1]; 48 h): 0.090 µg/mL

SMILES: CC[C@@H](C)[C@@H]1NC(=O)[C@@H]2CCN2C(=O)[C@H](Cc2ccccc2)N(C)C(=O)[C@H](Cc2ccccc2)NC(=O)[C@H](C(C)C)N(C)C(=O)[C@@H](C2CCCCC2)OC(=O)[C@H]([C@@H](C)O)N(C)C(=O)[C@H](CC(C)C)NC(=O)[C@H](C(C)C)N(C)C1=O [Compound 2, Cyclo-depsi-N-methyl-threonyl-(2-hydroxy-2-cyclohexylacetyl)-N-methylvalyl-phenylalanyl-N-methylphenylalanyl-azetidinyl-allo-isoleucyl-N-methylvalyl-leucine] (cyclo([Aze][aIle][NMeV]L[NMeT][X1][NMeV]F[NMeF]))
- Geo. Mean MICs (μg/ml) Ca. (EMEM) [1, 3]: 0.353 µg/mL
- Geo. Mean MICs (μg/ml) Ca. (SDB) [1, 4]: 0.062 µg/mL

SMILES: CC[C@@H](C)[C@@H]1NC(=O)[C@@H]2CCN2C(=O)[C@H](Cc2ccccc2)N(C)C(=O)[C@H](Cc2ccccc2)NC(=O)[C@H](C(C)C)N(C)C(=O)[C@@H](C2CCCC2)OC(=O)[C@H]([C@@H](C)O)N(C)C(=O)[C@H](CC(C)C)NC(=O)[C@H](C(C)C)N(C)C1=O [Compound 5] (cyclo([Aze][aIle][NMeV]L[NMeT][X3][NMeV]F[NMeF]))
- Geo. Mean MICs (μg/ml) Ca. (EMEM) ([1]; 48 h): 0.195 µg/mL
- Geo. Mean MICs (μg/ml) Ca. (SDB) ([1]; 48 h): 0.015 µg/mL

SMILES: CC[C@@H](C)[C@@H]1NC(=O)[C@@H]2CCCN2C(=O)[C@H](Cc2ccccc2)N(C)C(=O)[C@H](Cc2ccccc2)NC(=O)[C@H](C(C)C)N(C)C(=O)[C@@H](C(C)C)OC(=O)[C@H]([C@@H](C)O)N(C)C(=O)[C@H](CC(C)C)NC(=O)[C@H](C(C)C)N(C)C1=O [Compound 4] (cyclo(F[NMeF]P[aIle][NMeV]L[NMeT][dHiv][NMeV]))
- Geo. Mean MICs (μg/ml) Ca. (EMEM) ([1]; 48 h): 0.500 µg/mL
- Geo. Mean MICs (μg/ml) Ca. (SDB) ([1]; 48 h): 0.032 µg/mL
